Measurements from patent US10034886B2, “GLP-1 receptor modulators” (Celgene International II SÀRL, priority 2014, dated 2018).
Where two headings read alike, the source gives them in different places.

Biological target: T1, GLP-1R (Homo sapiens, UniProt P43220)
T1 construct: host or cells: GLP-1R CRE-bla CHO-K1 cells
Assay: EC20 GLP-1(9-36) PAM cAMP assay: dose response of compound in the presence of fixed concentration of GLP-1(9-36)
Format: cell-based
Details: GLP-1R CRE-bla CHO-K1 cells, read-out: EC20 GLP-1(9-36) PAM EC50
How it was run: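 GLP-1R CRE-bla CHO-K1 cells treated 30 min at 37 °C with 12-point compound dose response plus fixed EC20 GLP-1(9-36), with IBMX, in HBSS/HEPES/0.1% BSA pH 7.4. Total cAMP measured by luminescent detection against standard curve; EC50 and Emax from non-linear regression.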

[1] = dose response of compound in presence of fixed concentration of GLP-1(9-36)
[2] = compound dose response with fixed concentration of GLP-1(9-36)

T1 sequence (P43220 24-463): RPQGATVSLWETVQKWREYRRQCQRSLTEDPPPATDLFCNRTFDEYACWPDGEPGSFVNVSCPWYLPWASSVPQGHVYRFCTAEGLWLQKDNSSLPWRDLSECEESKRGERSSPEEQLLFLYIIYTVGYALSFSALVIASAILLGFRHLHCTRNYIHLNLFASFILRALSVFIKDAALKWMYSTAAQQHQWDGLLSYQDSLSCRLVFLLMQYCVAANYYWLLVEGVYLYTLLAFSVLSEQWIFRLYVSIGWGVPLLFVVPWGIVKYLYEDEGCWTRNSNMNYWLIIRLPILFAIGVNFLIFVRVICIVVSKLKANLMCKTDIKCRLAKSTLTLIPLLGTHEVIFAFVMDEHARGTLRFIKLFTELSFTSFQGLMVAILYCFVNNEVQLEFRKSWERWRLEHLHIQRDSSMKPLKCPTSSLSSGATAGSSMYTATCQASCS
T1 sequence (P01275 100-127 partner limits assumed): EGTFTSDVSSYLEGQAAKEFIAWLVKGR

| SMILES | EC50 [1] [µM] | EC50 [2] [µM] |
| --- | --- | --- |
| C[C@@H](NC(=O)[C@H](Cc1ccc(-c2ncc(-c3ccc(C4CCCC4)cc3)cn2)cc1)NC(=O)c1ccc(C(C)(C)C)s1)C(=O)O [Compound 1046] | 0.8 to 2.5 |  |
| CCC/C=C\CCOc1ccc(-c2cnc(-c3ccc(C[C@H](NC(=O)c4ccc(C(C)(C)C)cc4)C(=O)NCCC(=O)O)cc3)nc2)cc1 [Compound 715] | 2.5 to 5 |  |
| COc1ccc(-c2ccc(-c3cnc(-c4ccc(C[C@H](NC(=O)c5ccc(C(C)(C)C)s5)C(=O)N5CC(C(=O)O)C5)cc4)nc3)c(F)c2)cc1 [Compound 1329] |  | < 0.8 |
| CC(C)(C)c1ccc(C(=O)NC(Cc2ccc(-c3ncc(N4CCC(c5ccccc5F)CC4)cn3)cc2)C(=O)N2CC(C(=O)O)C2)s1 (centres unmarked) [Compound 1491] |  | 0.8 to 2.5 |
| CC(C)c1ccc(-c2cnc(-c3ccc(C[C@H](NC(=O)c4ccc(C(C)(C)C)s4)C(=O)N[C@H](C)C(=O)O)cc3)nc2)cc1 [Compound 1034] | 2.5 to 5 |  |
| CCCCCCCOc1ccc(-c2cnc(-c3ccc(C[C@H](NC(=O)c4ccc(C(C)(C)C)s4)C(=O)N[C@@H](CC(=O)OCc4ccccc4)C(=O)O)cc3)nc2)cc1 [Compound 524, (S)-4-(benzyloxy)-2-((S)-2-(5-(tert-butyl)thiophene-2-carboxamido)-3-(4-(5-(4-(heptyloxy)phenyl)pyrimidin-2-yl)phenyl)propanamido)-4-oxobutanoic acid] | < 0.8 |  |
| Cc1cccc(C2CCN(c3cnc(-c4ccc(C[C@H](NC(=O)c5ccc(C(C)(C)C)s5)C(=O)N5CC(C(=O)O)C5)cc4)nc3)CC2)c1 [Compound 1476] |  | < 0.8 |
| Cc1cccc(-c2ccc(-c3cnc(-c4ccc(C[C@H](NC(=O)c5ccc(C(C)(C)C)s5)C(=O)N[C@H](C)C(=O)O)cc4)nc3)cc2F)c1 [Compound 1141] | < 0.8 |  |
| CCCCCCCOc1ccc(-c2cnc(-c3ccc(C[C@H](NC(=O)c4ccc(C(C)(C)C)s4)C(=O)N4CC(OC)(C(=O)O)C4)cc3)nc2)cc1 [Compound 873] | < 0.8 |  |
| CCCCCCCOc1ccc(-c2cnc(-c3ccc(C[C@H](NC(=O)c4ccn(C(C)(C)C)c4)C(=O)N[C@H](C)C(=O)O)cc3)nc2)cc1 [Compound 838] | 0.8 to 2.5 |  |
| CCCCCCCOc1ccc(-c2cnc(-c3ccc(C[C@H](NC(=O)c4ccc(CCC)s4)C(=O)NC(C(=O)O)C(O)c4ccccc4)cc3)nc2)cc1 (some centres unmarked) [Compound 959] | 0.8 to 2.5 |  |
| CCCCCOc1ccc(-c2cnc(-c3ccc(C[C@H](NC(=O)c4ccc(C(C)(C)C)s4)C(=O)N[C@H](C)C(=O)O)cc3)nc2)cc1 [Compound 734] | 0.8 to 2.5 |  |
| CCCc1ccc(N2CCN(c3cnc(-c4ccc(C[C@H](NC(=O)c5ccc(C(C)(C)C)s5)C(=O)N5CC(C(=O)O)C5)cc4)nc3)CC2)cc1 [Compound 1511] |  | < 0.8 |
| CCCCCCCOc1ccc(-c2cnc(-c3ccc(C[C@H](NC(=O)c4ccc(C(C)(C)C)s4)C(=O)N4C[C@@H](C#N)C[C@H]4C(=O)O)cc3)nc2)cc1 [Compound 640] | < 0.8 |  |
| CCC[C@H]1CC[C@H](C2CCN(c3cnc(-c4ccc(C[C@H](NC(=O)c5ccc(C(C)(C)C)s5)C(=O)NS(C)(=O)=O)cc4)nc3)CC2)CC1 [Compound 1438, 5-(tert-butyl)-N—((S)-1-(methylsulfonamido)-1-oxo-3-(4-(5-(4-((1s,4r)-4-propylcyclohexyl)piperidin-1-yl)pyrimidin-2-yl)phenyl)propan-2-yl)thiophene-2-carboxamide] |  | < 0.8 |
| CCCCCCCOc1ccc(-c2cnc(-c3ccc(C[C@H](NC(=O)c4ccc(C(C)(C)C)s4)C(=O)N4CC[C@H](C(=O)NS(=O)(=O)CC(F)(F)F)C4)cc3)nc2)cc1 [Compound 887] | < 0.8 |  |
| CCC[C@H]1CC[C@H](C2CCN(c3cnc(-c4ccc(C[C@H](NC(=O)c5ccc(C(C)(C)CC)cc5)C(=O)N5CC(C(=O)O)C5)cc4)nc3)CC2)CC1 [Compound 1518] |  | < 0.8 |
| CCCCCCCOc1ccc(-c2cnc(-c3ccc(C[C@H](NC(=O)c4ccc(C(C)(C)C)s4)C(=O)N4CCCC45CNC5)cc3)nc2)cc1 [Compound 1048] | 2.5 to 5 |  |

| SMILES | EC50 [1] [µM] | EC50 [2] [µM] |
| --- | --- | --- |
| CCCCCCCOc1ccc2cc(-c3ccc(C[C@H](NC(=O)c4ccc(C(C)(C)C)cc4)C(=O)O)cc3)ncc2c1 [Compound 672, (S)-2-(4-(tert-butyl)benzamido)-3-(4-(7-(heptyloxy)isoquinolin-3-yl)phenyl)propanoic acid] | 2.5 to 5 |  |
| CCCCCCCOc1ccc(-c2cnc(-c3ccc(C[C@H](NC(=O)c4ccc(C(C)(C)C)s4)C(=O)NC(C(=O)O)c4ccco4)cc3)nc2)cc1 (some centres unmarked) [Compound 412] | < 0.8 |  |
| CCCCCCCOc1ccc(-c2cnc(-c3ccc(C[C@H](NC(=O)c4ccc(C(C)(C)C)s4)C(=O)N4CCN(c5ncccn5)CC4)cc3)nc2)cc1 [Compound 967] | 2.5 to 5 |  |
| CCCCCCCOc1ccc(-c2cnc(-c3ccc(C[C@H](NC(=O)c4ccc(C(C)(C)C)cc4)C(=O)N[C@H](C(=O)O)[C@@H](C)O)cc3)nc2)cc1 [Compound 450] | < 0.8 |  |
| CCCc1ccc(C2CN(c3cnc(-c4ccc(CC(NC(=O)c5ccc(C(C)(C)C)s5)C(=O)N5CC(C(=O)O)C5)cc4)nc3)C2)cc1 (centres unmarked) [Compound 1417] |  | 0.8 to 2.5 |
| CCCCCCCOc1ccc(-c2cnc(-c3ccc(C[C@H](NC(=O)c4ccc(C(C)(C)C)s4)C(=O)N4CC[C@H](C(=O)NS(C)(=O)=O)C4)cc3)nc2)cc1 [Compound 884] | 0.8 to 2.5 |  |
| CCCCCCCOc1ccc(-c2cnc(-c3ccc(C[C@H](NC(=O)c4cccc(C(C)(C)C)c4)C(=O)N4CC(C(=O)O)C4)cc3)nc2)cc1 [Compound 1122] | 5 to 10 |  |
| CCCCCCCOc1ccc(-c2cnc(-c3ccc(C[C@H](NC(=O)c4ccc(C(C)(C)C)s4)C(=O)N4CCC(CC(=O)O)C4)cc3)nc2)cc1 (some centres unmarked) [Compound 613] | 0.8 to 2.5 |  |
| CCCc1ccc(C2CCN(c3cnc(-c4ccc(C[C@H](NC(=O)c5ccc(C(C)(C)C)s5)C(=O)N5CC(C(=O)O)C5)cc4)nc3)C2)cc1 (some centres unmarked) [Compound 1504] |  | 0.8 to 2.5 |
| CC(C)(C)c1ccc(C(=O)N[C@@H](Cc2ccc(-c3ncc(N4CCC(c5ccc(C(F)(F)F)cc5)CC4)cn3)cc2)C(=O)N2CC(C(=O)O)C2)s1 [Compound 1481] |  | < 0.8 |
| CCCCCOc1ccc(-c2cnc(-c3ccc(C[C@H](NC(=O)c4ccc(C(C)(C)C)cc4)C(=O)NCCC(=O)O)cc3)nc2)cc1 [Compound 489] | 0.8 to 2.5 |  |
| CC(C)(C)c1ccc(C(=O)N[C@@H](Cc2ccc(-c3ncc(-c4ccc(OC(F)=C(F)F)cc4)cn3)cc2)C(=O)NCCC(=O)O)cc1 [Compound 691] | 2.5 to 5 |  |
| CCCCCCCOc1ccc(-c2cnc(-c3ccc(C[C@H](NC(=O)c4ccc(C(C)(C)C)s4)C(=O)N4CC(C)(C(=O)O)C4)cc3)nc2)cc1 [Compound 874] | 0.8 to 2.5 |  |
| CCC[C@H]1CC[C@@H](N2CCN(c3cnc(-c4ccc(C[C@H](NC(=O)c5ccc(C(C)(C)C)s5)C(=O)N5CC(C(=O)O)C5)cc4)nc3)CC2)CC1 [Compound 1436] |  | 0.8 to 2.5 |
| CC(C)N(C(=O)c1ccc(-c2cnc(-c3ccc(C[C@H](NC(=O)c4ccc(C(C)(C)C)s4)C(=O)N[C@H](C)C(=O)O)cc3)nc2)cc1)C(C)C [Compound 1028] | 2.5 to 5 |  |
| CCCc1ccc(-c2ccc(-c3cnc(-c4ccc(C[C@H](NC(=O)c5ccc(S(C)(=O)=O)cc5)C(=O)N5CC(C(=O)O)C5)cc4)nc3)c(F)c2)cc1 [Compound 1404] |  | < 0.8 |
| CCCOc1ccc(-c2cnc(-c3ccc(C[C@H](NC(=O)c4ccc(C(C)(C)C)s4)C(=O)N[C@H](C)C(=O)O)cc3)nc2)cc1 [Compound 732] | 0.8 to 2.5 |  |
